From US7955808B2, “Bitter taste receptors” (Deutsches Institut für Ernährungsorschung, Stiftung des …, priority 2002, dated 2011)

Experiments:
hTAS2R14 = molecular target: T1, hTAS2R14 (Homo sapiens, UniProt Q9NYV8); assay: FLIPR assay, heterologous expression of hTAS2R14; type: cell-based
T1 construct: gene-specific primers that span the complete coding region of the individual hTAS2R genes; first 45 amino acids of rat somatostatin type 3 receptor (cell surface-targeting signal) (N); expressed in transfected cells; host or cells: HEK-293T-Gα16gustducin44 cells (alternatively HEK-293 co-transfected with phospholipase-Cβ2 and α-gustducin)
T1 sequence (Q9NYV8 1-317): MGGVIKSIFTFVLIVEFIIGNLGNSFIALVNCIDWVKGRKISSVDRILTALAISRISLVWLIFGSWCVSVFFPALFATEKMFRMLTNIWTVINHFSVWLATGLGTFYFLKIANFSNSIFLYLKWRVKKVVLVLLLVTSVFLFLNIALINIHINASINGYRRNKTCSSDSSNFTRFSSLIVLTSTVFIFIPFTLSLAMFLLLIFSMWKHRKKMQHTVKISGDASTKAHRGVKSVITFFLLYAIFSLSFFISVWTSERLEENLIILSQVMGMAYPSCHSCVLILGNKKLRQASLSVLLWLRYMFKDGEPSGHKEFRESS
Description: (§1) Transient transfection of TAS2Rs into HEK-293T-Gα16gustducin44 cells.

hTAS2R16 [1] = molecular target: T2, hTAS2R16 (Homo sapiens, UniProt Q9NYV7, R222H); assay: FLIPR calcium assay, hTAS2R16-expressing HEK293/15 transfectants; type: cell-based
T2 construct: gene-specific primers that span the complete coding region of the individual hTAS2R genes; first 45 amino acids of rat somatostatin type 3 receptor (cell surface-targeting signal) (N); expressed in transfected cells; host or cells: HEK293/15 cells (HEK293 stably expressing Galpha15), transient transfection
T2 sequence (Q9NYV7 1-291 R222H): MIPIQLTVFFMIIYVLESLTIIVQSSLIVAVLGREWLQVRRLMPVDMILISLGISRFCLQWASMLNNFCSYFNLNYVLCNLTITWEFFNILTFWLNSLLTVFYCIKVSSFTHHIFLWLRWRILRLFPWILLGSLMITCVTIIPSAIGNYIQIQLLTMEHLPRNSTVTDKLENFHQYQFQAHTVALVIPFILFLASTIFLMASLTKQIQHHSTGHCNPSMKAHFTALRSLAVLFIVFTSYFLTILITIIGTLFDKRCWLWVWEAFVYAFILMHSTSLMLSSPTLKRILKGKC
Protocol: A fluorescence imaging plate reader (FLIPR, Molecular Devices) was used to functionally screen cell populations transiently transfected with expression vectors encoding the above-described 24 bitter receptors and to establish concentration-response curves for hTAS2R16 and hTASR10. […] For the FLIPR experiments the HEK293/15 cells were grown to 50% confluence. […] After 48 h the cells in each well were transfected using Lipofectamine 2000 and 24-30 h later were loaded with FIuo4AM (Molecular Probes). Thereafter they were stimulated with bitter compounds (SigmaAldrich, further purified by reversed-phase HPLC to >99% purity). Calcium signals were recorded simultaneously from each well at 1 Hz at 510 nm after excitation at 488 nm and the recordings were corrected for cell density. […] The calculations rest on at least four independent transfection experiments.
EC50 and threshold values obtained with hTAS2R16-expressing transfectants are shown in Table 1 below and the results are described in Example 4.

hTAS2R16 [2] = molecular target: T2, hTAS2R16; assay: Single-cell Ca2+ imaging, hTAS2R16-transfected HEK293/15 cells (selectivity, cross-desensitization); type: cell-based
Protocol: A fluorescence imaging plate reader (FLIPR, Molecular Devices) was used to functionally screen cell populations transiently transfected with expression vectors encoding the above-described 24 bitter receptors and to establish concentration-response curves for hTAS2R16 and hTASR10. […] For the FLIPR experiments the HEK293/15 cells were grown to 50% confluence. […] After 48 h the cells in each well were transfected using Lipofectamine 2000 and 24-30 h later were loaded with FIuo4AM (Molecular Probes). Thereafter they were stimulated with bitter compounds (SigmaAldrich, further purified by reversed-phase HPLC to >99% purity). Calcium signals were recorded simultaneously from each well at 1 Hz at 510 nm after excitation at 488 nm and the recordings were corrected for cell density. […]
Single-cell Ca^2+ imaging was performed with the hTAS2R16-transfected HEK293/15 cells as described in Cell 95, 917-926 (1998), but with the following modifications: The Till Photonics imaging system (Munich, Germany) was used in which a monochromator is connected by a quartz fiber lightguide and an epifluorescence condenser to an inverted Olympus IX50 microscope equipped with a UApo/340 40×1.35 oil-immersion lens. […] The 5 s interval camera pictures of all cells in the microscope field of vision permanently were stored and analyzed offline. […]

human panelists [3] = assay: Human taste experiments: bitter thresholds and dose-response by sensory panel; type: in vivo
Protocol: 15 experienced panelists in a sensory panel room at 22-25° C. determined bitter thresholds on three different sessions using a triangle test with tap water as solvent, according to methodology set out in J. Agric. Food Chem., 49, 231-238 (2001), or Mailgaard M et al, “Sensory Evaluation Techniques” (CRC Press LLC, New York 1999). For dose-response relations, bitter tastant concentration series were presented to 10 trained panelists in random order. The panelists ranked the samples in increasing order of intensity and, for each concentration, evaluated bitterness intensity on a scale from 0 to 5 (ref. 24). The dose-response curves of three different sessions were averaged. The intensity values between individuals and separate sessions differed by not more than 0.5 units.

hTAS2R16 [4] = molecular target: T2, hTAS2R16; assay: FLIPR assay, heterologous expression of hTAS2R16; type: cell-based; details: hTAS2R16
Description: as §1

human panelists [5] = assay: Human taste adaptation experiment; type: in vivo; details: for bitterness after prolonged stimulation with phenyl-beta-D-glucopyranoside (cross-adaptation): in vivo
Protocol: To investigate adaptation, the 8 panelists first maintained aqueous solutions (5 ml) of phenyl-β-D-glucopyranoside (8 mM), phenyl-alpha-D-glucopyranoside (180 mM), salicin (8 mM), or helicin (8 mM) for 15 s in their oral cavities and evaluated the bitter intensity as described above. After 30 min, they kept a denatonium benzoate solution (5 ml, 0.0003 mM) for 15 s in their mouth and evaluated its bitterness. The panelists spat off the denatonium benzoate solution, took up the phenyl-β-D-glucopyranoside or the phenyl-alpha-D-glucopyranoside solutions orally for 120 s or 180 s and judged their bitterness intensity after 15, 30, 60, 120 and 180s. Thereafter, the panelists spat off these solutions and then sequentially took up salicin, helicin (5 ml, 8 mM) and denatonium benzoate (5 ml, 0.0003 mM) and evaluated bitterness intensities of these solutions after 15 s. After an additional 30 min, the first experiment was repeated. The data of three different sessions for each panelist were averaged. Intensity values between individuals and separate sessions differed by not more than ±0.5 units.

hT2R4 receptor = molecular target: T3, hT2R4 receptor (Homo sapiens, UniProt Q9NYW5); details: concentrations needed two orders of magnitude above human taste thresholds; cited from earlier work
T3 sequence (Q9NYW5 1-299): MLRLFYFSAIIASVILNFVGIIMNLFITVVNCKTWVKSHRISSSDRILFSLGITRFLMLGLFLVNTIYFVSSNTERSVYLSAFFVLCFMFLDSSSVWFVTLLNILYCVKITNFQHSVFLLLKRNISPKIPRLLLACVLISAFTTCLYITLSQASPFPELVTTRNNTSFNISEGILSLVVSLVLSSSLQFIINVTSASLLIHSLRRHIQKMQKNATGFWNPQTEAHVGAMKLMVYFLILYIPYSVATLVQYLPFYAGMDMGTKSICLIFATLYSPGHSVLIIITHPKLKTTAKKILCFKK

hTAS2R10 [6] = molecular target: T4, hTAS2R10 (Homo sapiens, UniProt Q9NYW0, T156M); assay: FLIPR calcium assay, hTAS2R10-expressing HEK293/15 transfectants; type: cell-based
T4 construct: gene-specific primers that span the complete coding region of the individual hTAS2R genes; first 45 amino acids of rat somatostatin type 3 receptor (cell surface-targeting signal) (N); expressed in transfected cells; host or cells: HEK-293T-Gα16gustducin44 cells (alternatively HEK-293 co-transfected with phospholipase-Cβ2 and α-gustducin)
T4 sequence (Q9NYW0 1-307 T156M): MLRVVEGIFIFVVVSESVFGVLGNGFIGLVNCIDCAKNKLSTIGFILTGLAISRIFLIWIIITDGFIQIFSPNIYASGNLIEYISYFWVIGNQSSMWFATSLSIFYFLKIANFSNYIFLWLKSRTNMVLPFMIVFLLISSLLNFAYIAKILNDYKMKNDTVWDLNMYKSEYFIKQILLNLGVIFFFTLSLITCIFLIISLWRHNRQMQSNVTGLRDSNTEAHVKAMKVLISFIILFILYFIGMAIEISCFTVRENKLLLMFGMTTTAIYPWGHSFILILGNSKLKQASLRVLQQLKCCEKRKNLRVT
Protocol: A fluorescence imaging plate reader (FLIPR, Molecular Devices) was used to functionally screen cell populations transiently transfected with expression vectors encoding the above-described 24 bitter receptors and to establish concentration-response curves for hTAS2R16 and hTASR10. […] For the FLIPR experiments the HEK293/15 cells were grown to 50% confluence. The cells were then seeded at a density of 3×10^3 cells per well into 96-well black-wall, clear-bottom microtiter plates (Greiner). After 48 h the cells in each well were transfected using Lipofectamine 2000 and 24-30 h later were loaded with FIuo4AM (Molecular Probes). […] The responses of five wells containing cells expressing the same receptor and that received the same stimulus (i.e., the same compound at the same concentration) were averaged. Calcium traces were subtracted that were determined in triplicate of mock-transfected cells stimulated with the same concentration of tastant. The calculations rest on at least four independent transfection experiments.

hTAS2R10 [7] = molecular target: T4, hTAS2R10; assay: FLIPR assay, heterologous expression of hTAS2R10; type: cell-based
Description: as §1

hTAS2R38 = molecular target: T5, hTAS2R38 (Homo sapiens, UniProt P59533); assay: FLIPR assay, heterologous expression of hTAS2R38; type: cell-based
T5 construct: gene-specific primers that span the complete coding region ... contains the first 45 amino acids of the rat somatostatin type 3 receptor
T5 sequence (P59533 1-333 A49P/I296V): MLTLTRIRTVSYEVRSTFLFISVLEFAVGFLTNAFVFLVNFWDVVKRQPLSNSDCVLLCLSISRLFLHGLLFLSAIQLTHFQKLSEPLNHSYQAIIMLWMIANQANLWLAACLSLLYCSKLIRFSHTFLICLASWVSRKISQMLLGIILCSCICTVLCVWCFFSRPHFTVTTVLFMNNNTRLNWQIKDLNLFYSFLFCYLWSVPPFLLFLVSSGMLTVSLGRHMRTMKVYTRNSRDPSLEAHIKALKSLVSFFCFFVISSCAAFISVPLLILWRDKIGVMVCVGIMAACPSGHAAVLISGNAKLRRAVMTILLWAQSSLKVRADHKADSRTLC
Description: These cells stably express a chimeric G protein constructed from human Gα16 and rat gustducin. Finally, we seeded the transfected cells at a density of 3×10^3 cells per well into 96-well black-wall, clear-bottom microtiter plates (Greiner).
Co-transfection of TAS2Rs with gustducin and phospholipase-Cβ2 into HEK-293 cells. Alternatively, we transfected simultaneously plasmid DNAs encoding one of the TAS2Rs, phospholipase-Cβ2 and α-gustducin into HEK-293 cells using the lipofectamine method. Additional cotransfection of G-protein β and γ-subunits may improve the bitter tastant-induced responses. Thereafter, the transfected cells were seeded at a density of 3×10^3 cells per well into 96-well black-wall, clear-bottom microtiter plates (Greiner).
Thereafter, cells were gently washed in HBS by an automated plate washer (Denley Cellwash, Labsystenms) and transferred to the FLIPR (Molecular Devices). The FLIPR integrates an argon laser excitation source, a 96-well pipettor, and a detection system utilizing a Charged Coupled Device imaging camera. […] Fluorescence data were collected 1 min before and 10 min after stimulation. Data were collected every 6 s before and every 1 s after agonist stimulation. 50 μl of 3× concentrated agonists were delivered within 2 by the integrated 96-well pipettor to the wells containing 100 μl HBS. Agonist responses were quantified using the amplitudes of the fluorescence peaks. We averaged the responses of five wells containing cells expressing the same receptor and that received the same stimulus. Calcium traces were determined in triplicate of mock-transfected cells stimulated with the same concentration of tastant.

Which “receptor activation (in words)” value (hTAS2R14) does the source give for CC(C)C[C@H](N)C(=O)O [leucine] here?
Its value is “activated”.

For OCc1ccccc1O[C@@H]1O[C@H](CO)[C@@H](O)[C@H](O)[C@H]1O [Compound 2, salicin], which EC50 (hTAS2R16 [1]) is on record?
Its EC50 is 1400 µM.

What about the “Threshold Value FLIPR” value (hTAS2R16 [1]) of the same compound?
The value was 0.07 ± 0.02 mM.

What about the “response after repeated stimulation with phenyl-beta-D-glucopyranoside (cross-desensitization)” value (hTAS2R16 [2]; hTAS2R16-expressing cells) of the same compound?
The value was “largely diminished responses”.

What about the “Threshold Value Human” value (human panelists [3]; bitter threshold, triangle test, tap water) of the same compound?
The value was 0.2 ± 0.1 mM.

And the EC50 (human panelists [3]; bitterness intensity dose-response)?
The EC50 was 1100 µM.

What about the Threshold (hTAS2R16 [4]) of the same compound?
The Threshold was 0.07 ± 0.02 mM.

What about the EC50 (hTAS2R16 [4]; read-out: EC50) of the same compound?
The EC50 was 1400 ± 200 µM.

And the “initial bitterness score by test panel” value (human panelists [5]; 8 mM, 15 s)?
Its value is “equally intensely bitter”.

And the “bitterness after prolonged stimulation with phenyl-beta-D-glucopyranoside (cross-adaptation)” value (human panelists [5])?
Its value is “less bitter”.

With N[C@@H](Cc1ccccc1)C(=O)O [phenylalanine] as the compound, how does the “receptor activation (in words)” value (hTAS2R14) read?
Its value is “activated”.

With CC[N+](CC)(CC(=O)Nc1c(C)cccc1C)Cc1ccccc1 [denatonium] as the compound, how does the “in vitro response of the receptor” value (hT2R4 receptor) read?
The value was “provided a response”.

With O=C1C[C@@H]2OCC=C3CN4CC[C@]56c7ccccc7N1[C@H]5[C@H]2[C@H]3C[C@H]46 [Strychnine] as the compound, how does the EC50 (hTAS2R10 [6]) read?
The EC50 was 5 to 20 µM.

What about the threshold of activation (hTAS2R10 [6]; hTAS2R10 transfectants) of the same compound?
The threshold of activation was “approximately 0.1 μM”.

And the EC50 (hTAS2R10 [7])?
Its EC50 is 40 µM.

What about the Approx. Threshold (hTAS2R10 [7]; hTAS2R10) of the same compound?
Its Approx. Threshold is 0.003 mM.

And the “receptor activation (in words)” value (hTAS2R10 [7]; hTAS2R10)?
Its value is “activated”.

What does the source list for CC[N+](CC)(CC(=O)Nc1c(C)cccc1C)Cc1ccccc1.O=C([O-])c1ccccc1 [Denatonium benzoate]?
activation of TAS2R16 (hTAS2R16 [2]): cannot activate; Approx. Threshold (hTAS2R10 [7]; hTAS2R10): 0.003 mM; receptor activation (in words) (hTAS2R10 [7]; hTAS2R10): activated; EC50 (hTAS2R10 [7]; hTAS2R10, read-out: EC50): 70 µM; bitterness after prolonged stimulation with phenyl-beta-D-glucopyranoside (cross-adaptation) (human panelists [5]): not

Which results are given for CCCc1cc(=O)[nH]c(=S)[nH]1 [6-Propyl-2-thiouracil]?
Approx. Threshold (hTAS2R38): 0.3 µM; receptor activation (in words) (hTAS2R38): activated; EC50 (hTAS2R38; read-out: EC50): 2 µM; in vitro response of the receptor (hT2R4 receptor): provided a response

For N[C@@H](Cc1c[nH]cn1)C(=O)O [histidine], which “receptor activation (in words)” value (hTAS2R14) is on record?
The value was “activated”.

With N[C@@H](Cc1c[nH]c2ccccc12)C(=O)O [tryptophan] as the compound, how does the “receptor activation (in words)” value (hTAS2R14) read?
The value was “activated”.

With N[C@@H](Cc1ccc(O)cc1)C(=O)O [L-Tyrosine] as the compound, how does the reacts at (hTAS2R14) read?
The reacts at was 1 mM.

And the “receptor activation (in words)” value (hTAS2R14)?
Its value is “activated”.
